Test results: patent US20250255848A1, “SUBSTITUTED 6,7-DIHYDRO-5H-BENZO[7]ANNULENE DERIVATIVES, PROCESSES FOR THEIR PREPARATION AND THERAPEUTIC USES THEREOF” (SANOFI, priority 2022, published 2025)

Molecular target: ERα (Homo sapiens (Human), UniProt P03372)
Assay: Estrogen receptor degradation activity: breast cancer cell ERα in cell western assay
Assay type: cell-based
Details: MCF7 cells; for % Degradation At 0.3 μM: 4 hours, normalised to fulvestrant 0.1 μM and DMSO; for IC50: 4 hours post compound addition, concentration which degrades 50% of the estrogen receptor
Method: Said test involves measuring the in vitro degradation activity of the compounds of the Table 1a.
The measurements of the degradation activities were made using a breast cancer cell ERα in cell western assay as described hereunder.
MCF7 cells (ATCC) were seeded in 384 wells microplate (collagen coated) at a concentration of 10000 cells/30 μL per well in red phenol free MEM alpha medium (invitrogen) containing 5% charcoal dextran striped FBS. The following day, 9 points serial 1:5 dilution of each compound was added to the cells in 2.5 μL at final concentrations ranging from 0.3-0.0000018 μM (in table 2), or 0.1 μM for fulvestrant (using as positive control). At 4 hours post compound addition the cells were fixed by adding 25 μL of formalin (final concentration 5% formalin containing 0.1% triton) for 10 minutes at room temperature and then washed twice with PBS. Then, 50 μL of LI-COR blocking buffer containing 0.1% Triton was added to plate for 30 minutes at room temperature. LI-COR blocking buffer was removed and cells were incubated overnight at cold room with 50 μL anti-ER rabbit monoclonal antibody (Thermo scientific MA1-39540) diluted at 1:1000 in LI-COR blocking buffer containing 0.1% tween-20. Wells which were treated with blocking buffer but no antibody were used as background control. Wells were washed twice with PBS (0.1% tween-20) and incubated at 37° C. for 60 minutes in LI-COR (0.1% tween-20) containing goat anti-rabbit antibody Alexa 488 (1:1000) and Syto-64 a DNA dye (2 μM final concentration). Cells were then washed 3 times in PBS and scanned in ACUMEN explorer (TTP-Labtech). Integrated intensities in the green fluorescence and red fluorescence were measured to determine the levels of ERα and DNA respectively.
The degradation activity with respect to estrogen receptors in this test is given by the concentration which degrades 50% of the estrogen receptor (or IC50) in nM.
The % of ERα levels decrease were determined as follows: % inhibition=100*(1−(sample−fulvestrant:DMSO−fulvestrant)).

Sequence of ERα (P03372 whole entry): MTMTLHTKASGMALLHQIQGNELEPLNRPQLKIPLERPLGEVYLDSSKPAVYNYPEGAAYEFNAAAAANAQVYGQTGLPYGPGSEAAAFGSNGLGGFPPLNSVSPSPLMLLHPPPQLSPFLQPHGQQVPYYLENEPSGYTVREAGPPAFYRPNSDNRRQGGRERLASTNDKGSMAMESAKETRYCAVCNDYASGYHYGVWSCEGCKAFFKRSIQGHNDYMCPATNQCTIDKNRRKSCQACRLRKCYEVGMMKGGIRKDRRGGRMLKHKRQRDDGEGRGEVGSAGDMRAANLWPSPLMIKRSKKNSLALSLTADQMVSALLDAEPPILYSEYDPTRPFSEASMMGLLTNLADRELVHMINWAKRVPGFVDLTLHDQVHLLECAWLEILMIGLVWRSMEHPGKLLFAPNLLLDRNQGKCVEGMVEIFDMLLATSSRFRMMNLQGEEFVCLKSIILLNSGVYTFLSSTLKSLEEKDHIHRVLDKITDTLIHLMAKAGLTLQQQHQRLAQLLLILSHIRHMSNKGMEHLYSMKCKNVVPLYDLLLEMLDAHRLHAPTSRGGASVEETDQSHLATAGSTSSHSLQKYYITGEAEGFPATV

Row | SMILES | % Degradation At 0.3 μM | IC50
1 | Cc1cc(C2=C(c3ccc(C=C4CN(CCCF)C4)cc3)c3ccc(C(=O)O)cc3CCC2)ccc1C(F)F [Compound 28, 8-(4-(difluoromethyl)-3-methylphenyl)-9-(4-((1-(3-fluoropropyl)azetidin-3-ylidene)methyl)phenyl)-6,7-dihydro-5H-benzo[7]annulene-3-carboxylic acid] | 94% | 0.5 nM
2 | COc1cc(C(F)F)ccc1C1=C(c2ccc(C=C3CN(CCCF)C3)cc2)c2ccc(C(=O)O)cc2CCC1 [Compound 29, 8-(4-(difluoromethyl)-2-methoxyphenyl)-9-(4-((1-(3-fluoropropyl)azetidin-3-ylidene)methyl)phenyl)-6,7-dihydro-5H-benzo[7]annulene-3-carboxylic acid] | 93% | 0.6 nM
3 | Cc1cccc(C2=C(c3ccc(C=C4CN(CCCF)C4)cc3)c3ccc(C(=O)O)cc3CCC2)c1C(F)F [Compound 30, 8-(2-(difluoromethyl)-3-methylphenyl)-9-(4-((1-(3-fluoropropyl)azetidin-3-ylidene)methyl)phenyl)-6,7-dihydro-5H-benzo[7]annulene-3-carboxylic acid] | 91% | 0.4 nM
4 | COc1cc(C2=C(c3ccc(C=C4CN(CCCF)C4)cc3)c3ccc(C(=O)O)cc3CCC2)ccc1C(F)F [Compound 31, 8-(4-(difluoromethyl)-3-methoxyphenyl)-9-(4-((1-(3-fluoropropyl)azetidin-3-ylidene)methyl)phenyl)-6,7-dihydro-5H-benzo[7]annulene-3-carboxylic acid] | 95% | 37.8 nM
5 | O=C(O)c1ccc2c(c1)CCCC(c1ccccc1CF)=C2c1ccc(C=C2CN(CCCF)C2)cc1 [Compound 32, 8-(2-(fluoromethyl)phenyl)-9-(4-((1-(3-fluoropropyl)azetidin-3-ylidene)methyl)phenyl)-6,7-dihydro-5H-benzo[7]annulene-3-carboxylic acid] | 91% | 0.3 nM
6 | O=C(O)c1ccc2c(c1)CCCC(c1cccc(F)c1OC(F)F)=C2c1ccc(C=C2CN(CCCF)C2)cc1 [Compound 33, 8-(2-(difluoromethoxy)-3-fluorophenyl)-9-(4-((1-(3-fluoropropyl)azetidin-3-ylidene)methyl)phenyl)-6,7-dihydro-5H-benzo[7]annulene-3-carboxylic acid] | 91% | 0.3 nM
7 | O=C(O)c1ccc2c(c1)CCCC(c1cccc(Cl)c1OC(F)(F)F)=C2c1ccc(C=C2CN(CCCF)C2)cc1 [Compound 34, 8-(3-chloro-2-(trifluoromethoxy)phenyl)-9-(4-((1-(3-fluoropropyl)azetidin-3-ylidene)methyl)phenyl)-6,7-dihydro-5H-benzo[7]annulene-3-carboxylic acid] | 94% | 0.7 nM
8 | COc1ccc(C2=C(c3ccc(C=C4CN(CCCF)C4)cc3)c3ccc(C(=O)O)cc3CCC2)c(C(F)F)c1 [Compound 37, 8-(2-(difluoromethyl)-4-methoxyphenyl)-9-(4-((1-(3-fluoropropyl)azetidin-3-ylidene)methyl)phenyl)-6,7-dihydro-5H-benzo[7]annulene-3-carboxylic acid] | 91% | 0.6 nM
9 | O=C(O)c1ccc2c(c1)CCCC(c1cccc(F)c1CF)=C2c1ccc(C=C2CN(CCCF)C2)cc1 [Compound 38, 8-(3-fluoro-2-(fluoromethyl)phenyl)-9-(4-((1-(3-fluoropropyl)azetidin-3-ylidene)methyl)phenyl)-6,7-dihydro-5H-benzo[7]annulene-3-carboxylic acid] | 90% | 0.4 nM
10 | CCc1c(F)cccc1C1=C(c2ccc(C=C3CN(CCCF)C3)cc2)c2ccc(C(=O)O)cc2CCC1 [Compound 39, 8-(2-ethyl-3-fluorophenyl)-9-(4-((1-(3-fluoropropyl)azetidin-3-ylidene)methyl)phenyl)-6,7-dihydro-5H-benzo[7]annulene-3-carboxylic acid] | 92% | 0.3 nM
11 | COc1c(F)cccc1C1=C(c2ccc(C=C3CN(CCCF)C3)cc2)c2ccc(C(=O)O)cc2CCC1 [Compound 40, 8-(3-fluoro-2-methoxyphenyl)-9-(4-((1-(3-fluoropropyl)azetidin-3-ylidene)methyl)phenyl)-6,7-dihydro-5H-benzo[7]annulene-3-carboxylic acid] | 91% | 0.5 nM
12 | COc1cccc(C2=C(c3ccc(C=C4CN(CCCF)C4)cc3)c3ccc(C(=O)O)cc3CCC2)c1C [Compound 41, 9-(4-((1-(3-fluoropropyl)azetidin-3-ylidene)methyl)phenyl)-8-(3-methoxy-2-methylphenyl)-6,7-dihydro-5H-benzo[7]annulene-3-carboxylic acid] | 91% | 0.7 nM
13 | Cc1c(Cl)cccc1C1=C(c2ccc(C=C3CN(CCC(F)F)C3)cc2)c2ccc(O)cc2CCC1 [Compound 42, 8-(3-chloro-2-methylphenyl)-9-(4-((1-(3,3-difluoropropyl)azetidin-3-ylidene)methyl)phenyl)-6,7-dihydro-5H-benzo[7]annulen-3-ol] | 53% | 6.4 nM
14 | Cc1ccc(C2=C(c3ccc(C=C4CN(CCCF)C4)cc3)c3ccc(C(=O)O)cc3CCC2)c(C(F)F)c1 [Compound 43, 8-(2-(difluoromethyl)-4-methylphenyl)-9-(4-((1-(3-fluoropropyl)azetidin-3-ylidene)methyl)phenyl)-6,7-dihydro-5H-benzo[7]annulene-3-carboxylic acid] | 91% | 0.5 nM
15 | Cc1cc(C(F)F)ccc1C1=C(c2ccc(C=C3CN(CCCF)C3)cc2)c2ccc(C(=O)O)cc2CCC1 [Compound 44, 8-(4-(difluoromethyl)-2-methylphenyl)-9-(4-((1-(3-fluoropropyl)azetidin-3-ylidene)methyl)phenyl)-6,7-dihydro-5H-benzo[7]annulene-3-carboxylic acid] | 93% | 0.5 nM
16 | COc1ccc(C(F)F)c(C2=C(c3ccc(C=C4CN(CCCF)C4)cc3)c3ccc(C(=O)O)cc3CCC2)c1 [Compound 45, 8-(2-(difluoromethyl)-5-methoxyphenyl)-9-(4-((1-(3-fluoropropyl)azetidin-3-ylidene)methyl)phenyl)-6,7-dihydro-5H-benzo[7]annulene-3-carboxylic acid] | 93% | 0.6 nM
17 | CCc1c(Cl)cccc1C1=C(c2ccc(C=C3CN(CCCF)C3)cc2)c2ccc(C(=O)O)cc2CCC1 [Compound 46, 8-(3-chloro-2-ethylphenyl)-9-(4-((1-(3-fluoropropyl)azetidin-3-ylidene)methyl)phenyl)-6,7-dihydro-5H-benzo[7]annulene-3-carboxylic acid] | 91% | 0.5 nM
18 | COc1ccc(C(F)(F)F)c(C2=C(c3ccc(C=C4CN(CCCF)C4)cc3)c3ccc(C(=O)O)cc3CCC2)c1 [Compound 47, 9-(4-((1-(3-fluoropropyl)azetidin-3-ylidene)methyl)phenyl)-8-(5-methoxy-2-(trifluoromethyl)phenyl)-6,7-dihydro-5H-benzo[7]annulene-3-carboxylic acid] | 93% | 0.5 nM
19 | O=C(O)c1ccc2c(c1)CCCC(c1ccc(C(F)(F)F)cc1C1CC1)=C2c1ccc(C=C2CN(CCCF)C2)cc1 [Compound 48, 8-(2-cyclopropyl-4-(trifluoromethyl)phenyl)-9-(4-((1-(3-fluoropropyl)azetidin-3-ylidene)methyl)phenyl)-6,7-dihydro-5H-benzo[7]annulene-3-carboxylic acid] | 94% | 0.9 nM
20 | COc1c(Cl)cccc1C1=C(c2ccc(C=C3CN(CCCF)C3)cc2)c2ccc(C(=O)O)cc2CCC1 [Compound 49, 8-(3-chloro-2-methoxyphenyl)-9-(4-((1-(3-fluoropropyl)azetidin-3-ylidene)methyl)phenyl)-6,7-dihydro-5H-benzo[7]annulene-3-carboxylic acid] | 93% | 0.5 nM
21 | COc1cc(C2=C(c3ccc(C=C4CN(CCCF)C4)cc3)c3ccc(C(=O)O)cc3CCC2)ccc1C(F)(F)F [Compound 50, 9-(4-((1-(3-fluoropropyl)azetidin-3-ylidene)methyl)phenyl)-8-(3-methoxy-4-(trifluoromethyl)phenyl)-6,7-dihydro-5H-benzo[7]annulene-3-carboxylic acid] | 92% | 8.5 nM
22 | O=C(O)c1ccc2c(c1)CCCC(c1ccc(C(F)F)cc1C(F)(F)F)=C2c1ccc(C=C2CN(CCCF)C2)cc1 [Compound 51, 8-(4-(difluoromethyl)-2-(trifluoromethyl)phenyl)-9-(4-((1-(3-fluoropropyl)azetidin-3-ylidene)methyl)phenyl)-6,7-dihydro-5H-benzo[7]annulene-3-carboxylic acid] | 92% | 0.5 nM
